Tests used:
bedstraw = test: Test B pre/postemergence bedstraw; format: in vivo, Galium aparine
Method in brief: (§1)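 Test chemicals in a non-phytotoxic solvent mixture with surfactant were sprayed preemergence onto planted seeds and postemergence onto plants 2 to 18 cm tall (1- to 4-leaf stage). After twelve to sixteen days in a greenhouse, injury was visually rated against untreated controls from 0 (no effect) to 10 (complete control).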

blackgrass = test: Test B pre/postemergence blackgrass; format: in vivo, Alopecurus myosuroides
Method in brief: as §1

surinam grass = test: Test B pre/postemergence surinam grass; format: in vivo, Brachiaria decumbens
Method in brief: as §1

cocklebur = test: Test B pre/postemergence cocklebur; format: in vivo, Xanthium strumarium
Method in brief: as §1

corn = test: Test B pre/postemergence corn; format: in vivo, Zea mays
Method in brief: as §1

morningglory = test: Test B pre/postemergence morningglory; format: in vivo, Ipomoea hederacea
Method in brief: as §1

pigweed = test: Test B pre/postemergence pigweed; format: in vivo, Amaranthus retroflexus
Method in brief: as §1

rape = test: Test B pre/postemergence rape; format: in vivo, Brassica napus
Method in brief: as §1

soybean = test: Test B pre/postemergence soybean; format: in vivo, Glycine max
Method in brief: as §1

sugar beet = test: Test B pre/postemergence sugar beet; format: in vivo, Beta vulgaris
Method in brief: as §1

velvetleaf = test: Test B pre/postemergence velvetleaf; format: in vivo, Abutilon theophrasti
Method in brief: as §1

wild oat = test: Test B pre/postemergence wild oat; format: in vivo, Avena fatua
Method in brief: as §1

purple nutsedge = test: Test B pre/postemergence purple nutsedge; format: in vivo, Cyperus rotundus
Method in brief: as §1

rice = test: Test B flood test rice; format: in vivo, Oryza sativa
Method in brief: (§2)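 Each value is a visual injury score relative to controls, with 10 meaning complete control and 0 no effect. Evaluation took place twelve to sixteen days after the 2-leaf-stage plants were treated and kept in the greenhouse.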

smallflower flatsedge = test: Test B flood test smallflower flatsedge; format: in vivo, Cyperus difformis
Method in brief: as §2

bamyardgrass = test: Test B flood test barnyardgrass; format: in vivo, Echinochloa crus-galli
Method in brief: as §2

[1] = Preemergence, Rate 31 g/ha, visual rating, scale 0 to 10 (0 no effect, 10 complete control)
[2] = Preemergence, Rate 62 g/ha, scale of 0 to 10 where 0 is no effect and 10 is complete control
[3] = Preemergence, Rate 250 g/ha, scale of 0 to 10 where 0 is no effect and 10 is complete control
[4] = Rate 31 g/ha, Postemergence, scale 0 to 10
[5] = Rate 62 g/ha, Postemergence, scale 0 to 10 (0 no effect, 10 complete control)
[6] = Rate 125 g/ha, Postemergence, scale of 0 to 10 where 0 is no effect and 10 is complete control
[7] = Rate 125 g/ha, Preemergence, scale of 0 to 10 where 0 is no effect and 10 is complete control
[8] = Rate 250 g/ha, Postemergence, scale of 0 to 10 where 0 is no effect and 10 is complete control
[9] = Rate 31 g/ha, Pre-emergence section (flood test species), scale 0 to 10
[10] = Rate 62 g/ha, headed Pre-emergence (flood test species), scale 0 to 10 (0 no effect, 10 complete control)
[11] = Rate 125 g/ha, Pre-emergence, flood test species, scale 0 to 10 where 0 is no effect and 10 is complete control
[12] = Rate 250 g/ha, Pre-emergence, flood-test species, scale 0 to 10, 0 is no effect, 10 is complete control

## CC(C)=CCn1c(=O)on(C(=O)N(c2ccc(F)cc2)C(C)C)c1=O [Compound 288]
bedstraw; [1]
  Bedstraw plant response rating: 0
bedstraw; [2]
  Bedstraw plant response rating: 0
bedstraw; [3]
  Bedstraw plant response rating: 10
bedstraw; [4]
  Bedstraw plant response rating: 0
bedstraw; [5]
  Bedstraw plant response rating: 0
bedstraw; [6]
  Bedstraw plant response rating: 0
bedstraw; [7]
  Bedstraw plant response rating: 2
bedstraw; [8]
  Plant response rating, Bedstraw: 0
blackgrass; [1]
  Blackgrass plant response rating: 0
blackgrass; [2]
  Blackgrass plant response rating: 0
blackgrass; [3]
  Blackgrass plant response rating: 6
blackgrass; [4]
  Blackgrass plant response rating: 0
blackgrass; [5]
  Blackgrass plant response rating: 0
blackgrass; [6]
  Blackgrass plant response rating: 0
blackgrass; [7]
  Blackgrass plant response rating: 2
blackgrass; [8]
  Plant response rating, Blackgrass: 2
Surinam grass; [1]
  B. signalgrass plant response rating: 0
Surinam grass; [2]
  B. signalgrass plant response rating: 0
Surinam grass; [3]
  B. signalgrass plant response rating: 6
Surinam grass; [4]
  B. signalgrass plant response rating: 0
Surinam grass; [5]
  B. signalgrass plant response rating: 0
Surinam grass; [6]
  B. signalgrass plant response rating: 0
Surinam grass; [7]
  B. signalgrass plant response rating: 4
Surinam grass; [8]
  Plant response rating, B. signalgrass: 0
cocklebur; [1]
  Cocklebur plant response rating: 0
cocklebur; [2]
  Cocklebur plant response rating: 0
cocklebur; [3]
  Cocklebur plant response rating: 0
cocklebur; [4]
  Cocklebur plant response rating: 0
cocklebur; [5]
  Cocklebur plant response rating: 0
cocklebur; [6]
  Cocklebur plant response rating: 0
cocklebur; [7]
  Cocklebur plant response rating: 0
cocklebur; [8]
  Plant response rating, Cocklebur: 1
corn; [1]
  Corn plant response rating: 0
corn; [2]
  Corn plant response rating: 0
corn; [3]
  Corn plant response rating: 0
corn; [4]
  Corn plant response rating: 0
corn; [5]
  Corn plant response rating: 0
corn; [6]
  Corn plant response rating: 0
corn; [7]
  Corn plant response rating: 0
corn; [8]
  Plant response rating, Corn: 0
morningglory; [1]
  Morningglory plant response rating: 0
morningglory; [2]
  Morningglory plant response rating: 0
morningglory; [3]
  Morningglory plant response rating: 0
morningglory; [4]
  Morningglory plant response rating: 3
morningglory; [5]
  Morningglory plant response rating: 7
morningglory; [6]
  Morningglory plant response rating: 8
morningglory; [7]
  Morningglory plant response rating: 0
morningglory; [8]
  Plant response rating, Morningglory: 8
pigweed; [1]
  Redroot pigweed plant response rating: 0
pigweed; [2]
  Redroot pigweed plant response rating: 0
pigweed; [3]
  Redroot pigweed plant response rating: 0
pigweed; [4]
  Redroot pigweed plant response rating: 0
pigweed; [5]
  Redroot pigweed plant response rating: 0
pigweed; [6]
  Redroot pigweed plant response rating: 0
pigweed; [7]
  Redroot pigweed plant response rating: 0
pigweed; [8]
  Plant response rating, Redroot pigweed: 0
rape; [1]
  Rape plant response rating: 0
rape; [2]
  Rape plant response rating: 0
rape; [3]
  Rape plant response rating: 0
rape; [4]
  Rape plant response rating: 0
rape; [5]
  Rape plant response rating: 1
rape; [6]
  Rape plant response rating: 2
rape; [7]
  Rape plant response rating: 0
rape; [8]
  Plant response rating, Rape: 3
soybean; [1]
  Soybean plant response rating: 0
soybean; [2]
  Soybean plant response rating: 0
soybean; [3]
  Soybean plant response rating: 0
soybean; [5]
  Soybean plant response rating: 0
soybean; [6]
  Soybean plant response rating: 2
soybean; [7]
  Soybean plant response rating: 0
soybean; [8]
  Plant response rating, Soybean: 2
Sugar beet; [1]
  Sugarbeets plant response rating: 0
Sugar beet; [2]
  Sugarbeets plant response rating: 0
Sugar beet; [3]
  Sugarbeets plant response rating: 0
Sugar beet; [5]
  Sugarbeets plant response rating: 0
Sugar beet; [6]
  Sugarbeets plant response rating: 0
Sugar beet; [7]
  Sugarbeets plant response rating: 0
Sugar beet; [8]
  Plant response rating, Sugarbeets: 0
velvetleaf; [1]
  Velvetleaf plant response rating: 0
velvetleaf; [2]
  Velvetleaf plant response rating: 0
velvetleaf; [3]
  Velvetleaf plant response rating: 3
velvetleaf; [5]
  Velvetleaf plant response rating: 0
velvetleaf; [6]
  Velvetleaf plant response rating: 0
velvetleaf; [7]
  Velvetleaf plant response rating: 0
velvetleaf; [8]
  Plant response rating, Velvetleaf: 1
Wild oat; [1]
  Wild oats plant response rating: 0
Wild oat; [2]
  Wild oats plant response rating: 0
Wild oat; [3]
  Wild oats plant response rating: 5
Wild oat; [5]
  Wild oats plant response rating: 0
Wild oat; [6]
  Wild oats plant response rating: 0
Wild oat; [8]
  Plant response rating, Wild oats: 0
Purple nutsedge; [1]
  Nutsedge plant response rating: 0
Purple nutsedge; [2]
  Nutsedge plant response rating: 0
Purple nutsedge; [3]
  Nutsedge plant response rating: 0
Purple nutsedge; [4]
  Nutsedge plant response rating: 0
Purple nutsedge; [5]
  Nutsedge plant response rating: 0
Purple nutsedge; [6]
  Nutsedge plant response rating: 0
Purple nutsedge; [7]
  Nutsedge plant response rating: 0
Purple nutsedge; [8]
  Plant response rating, Nutsedge: 0
rice; [9]
  Rice plant response rating: 0
rice; [10]
  Rice plant response rating: 0
rice; [11]
  Rice plant response rating: 0
rice; [12]
  Rice plant response rating: 0
Smallflower flatsedge; [9]
  S. Flatsedge plant response rating: 0
Smallflower flatsedge; [10]
  S. Flatsedge plant response rating: 0
Smallflower flatsedge; [11]
  S. Flatsedge plant response rating: 0
Smallflower flatsedge; [12]
  S. Flatsedge plant response rating: 0
bamyardgrass; [9]
  Barnyardgrass plant response rating: 0
bamyardgrass; [10]
  Barnyardgrass plant response rating: 0
bamyardgrass; [11]
  Barnyardgrass plant response rating: 4
bamyardgrass; [12]
  Barnyardgrass plant response rating: 9

— patent US6737383B1, “Herbicidal oxadiazolidines” (priority 1999, dated 2004)
